Reference: ChEMBL document CHEMBL1143278, “3-Aminoxypropionate-based linker system for cyclization activation in prodrug design” (Bioorg Med Chem Lett, 2009)

Assays:
[1] = Stability assessed as cyclization activation in phosphate buffer at pH 7.4 by HPLC; assay type: physicochemical
[2] = Stability assessed as cyclization activation in phosphate buffer at pH 6.0 by HPLC; assay type: physicochemical
[3] = Stability in phosphate buffer at pH 7.4 in absence of alpha-chymotrypsin; assay type: ADME
[4] = Stability assessed as formation of ((2R,3S,5R)-5-(5-fluoro-2,4-dioxo-3,4-dihydropyrimidin-1(2H)-yl)-3-hydroxytetrahydrofuran-2-yl)methyl 3-(aminooxy)-2,2-dimethylpropanoate in phosphate buffer at pH 7.4 in presence of alpha-chymotrypsin; assay type: ADME

half-life [1] [h]	half-life [2] [h]	Stability [3]	t1/2 [4] [h]	Compound
1.14	22.9			Cl.NOCCC(=O)OC[C@H]1O[C@@H](n2cc(F)c(=O)[nH]c2=O)C[C@@H]1O
		Stable	0.608	CC(C)(CONC(=O)[C@H](Cc1ccccc1)NC(=O)OCc1ccccc1)C(=O)OC[C@H]1O[C@@H](n2cc(F)c(=O)[nH]c2=O)C[C@@H]1O
0.722	23.4			CC(C)(CON)C(=O)OC[C@H]1O[C@@H](n2cc(F)c(=O)[nH]c2=O)C[C@@H]1O.Cl
